Experimental data as given in US4985428A, “Isoxazoles with nootropic activity” (Zambon Group S.p.A., priority 1987, dated 1991).
Like-named read-outs stand apart in the source and are kept apart here.

System: electroshock (ECS) amnesia in rat
Test: electroshock (ECS) amnesia test in rat
Type: in vivo
Details: male rats, dose improving retention time by 50% of Δt vs ECS control
Description: The compounds of formula I are active on central nervous system and they can be used in pharmaceutical field as nootropics. By the electroshock (ECS) amnesia test, described in example 8, in rat the pharmacological activity of the compounds object of the present invention was evaluated in comparison with the activity of Piracetam and Aniracetam. Pharmacodynamic evaluation: electroshock (ECS) amnesia test in rat Male rats weighing 130-150 g and fasting for at least 12 hours before the beginning of the test were used. The test consisted in two experiments with a resting interval of 24 hours between them. First experiment: training session The animals were trained to associate the passage from a light partition to a dark one, in a suitable box, with a noxious stimulation that is an electric stimulation through an electrified grid (foot-shock: 1 mA for 10 seconds). Second experiment: retention session The ability of the animals to remember was evaluated as the time utilized to repeat the passage through the partitions (retention time). Evaluation of the retention time in control groups of animals The test was carried out first on two groups of animals as control. […] Fixing 60 seconds as time-limit for performing the second experiment, the average time (retention time) utilized for the passage was 54 seconds for the control and 32 seconds for the ECS control. Evaluation of the retention time in groups of treated animals Groups of 20 rats underwent the training session, the treatment for inducing amnesia and the retention session after administration of the compounds object of the present invention and of the reference compounds, Piracetam and Aniracetam. The administration was carried out 30 minutes before the training session in case of intraperitoneal administration (i.p.) and 60 minutes before in case of administration by oral route. At least three doses each compound and each administration route were tested. The difference between the retention time of the control and the retention time of the ECS control was considered as reference (Δt) and it was fixed, as percentage, equal to 100. In the groups of animals which were treated and underwent ECS the activity against amnesia of the compounds object of the present invention was expressed as ED50 that is as the dose of compound able to give an improvement of the retention time equal to 50% of the reference interval (Δt) in comparison with the ECS control.

[1] = ip, intraperitoneal, 30 minutes before training session, read-out: ED50 i.p.
[2] = oral route, 60 minutes before training session, read-out: ED50 os

SMILES	ED50 [1]	ED50 [2]
O=C(O)CCCNC(=O)c1cc(Cl)no1 [Compound 2, N-(3-chloro-5-isoxazolecarbonyl)-4-aminobutyric acid]	160 µmol/kg	260 µmol/kg
O=C(NCCCC(=O)N1CCCC1)c1cc(Br)no1 [Compound 8, N-[4-oxo-4-(1-pyrrolidinyl)butyl]-3-bromo-5-isoxazolecarboxamide]	25 µmol/kg	80 µmol/kg
O=C(O)CCCNC(=O)c1cc(Br)no1 [Compound 1, N-(3-bromo-5-isoxazolecarbonyl)-4-aminobutyric acid]	102 µmol/kg	290 µmol/kg
CCOC(=O)CNC(=O)CCCNC(=O)c1cc(Br)no1 [Compound 12, Ethyl N-[N-(3-bromo-5-isoxazolecarbonyl)-4-aminobutyroyl]glicinate]	171 µmol/kg	1000 µmol/kg
COc1cc(C(=O)NCCCC(=O)O)on1 [Compound 3, N-(3-methoxy-5-isoxazolecarbonyl)-4-aminobutyric acid]	276 µmol/kg	868 µmol/kg
COc1ccc(C(=O)N2CCCC2=O)cc1 [Aniracetam, 1-(4-methoxy-benzoyl)-2-pyrrolidinone, reference compound]	353 µmol/kg	1110 µmol/kg
NC(=O)CN1CCCC1=O [Piracetam, 2-pyrrolidinoneacetamide, reference compound]	329 µmol/kg	1550 µmol/kg
Cc1cc(C(=O)NCCCC(=O)O)on1 [Compound 4, N-(3-methyl-5-isoxazolecarbonyl)-4-aminobutyric acid]	202 µmol/kg	383 µmol/kg
O=C(NCCCC(=O)N1CCCC1=O)c1cc(Br)no1 [Compound 21, 1-[N-(3-bromo-5-isoxazolecarbonyl)-4-aminobutyroyl]-2-pyrrolidinone]	–	254 µmol/kg
O=C(O)CCCNC(=O)CCCNC(=O)c1cc(Br)no1 [Compound 19, N-[N-(3-bromo-5-isoxazolecarbonyl)-4-aminobutyroyl]-4-aminobutyric acid]	–	261 µmol/kg
